The record followed here is ChEMBL document CHEMBL1128828, “Convergent approach to water soluble camptothecin derivatives” (1995).

What all share (format): functional
What all share (conditions): route intravenous

For experiment [1], the system named is Mus musculus. The experiment in a line: Inhibitory effect on the growth of Colon 26 tumor cell line transplanted subcutaneously into mice at dose of 2 mg/kg/day x 5 administered intravenously.
Experiment [2] relates to Mus musculus. The experiment in a line: Inhibitory effect on the growth of P388/CPT tumor cell line transplanted subcutaneously into mice at dose of 4 mg/kg/day x 5 administered intravenously.
In experiment [3] the test system is Mus musculus. Nature of the experiment: Inhibitory effect on the growth of Colon 26 tumor cell line transplanted subcutaneously into mice at dose of 4 mg/kg/day x 5 administered intravenously.
Experiment [4] relates to Mus musculus. The experiment in a line: Inhibitory effect on the growth of P388/CPT tumor cell line transplanted subcutaneously into mice at dose of 2 mg/kg/day x 5 administered intravenously.

Usually T/C stands for the result in the treated group divided by that in the control group, in per cent. Regarding `CCC1(O)C(=O)OCc2c1cc1n(c2=O)Cc2c-1nc1cc3c(cc1c2CCN)OCO3.O=C(O)C(F)(F)F` (stereo not drawn), the T/C in the experiment on Mus musculus [1] stood at 55%; with Mus musculus [2], 36%; in the experiment with Mus musculus [3], 49%; in the experiment on Mus musculus [4], 65%.

For `CC[C@@]1(O)C(=O)OCc2c1cc1n(c2=O)Cc2cc3c(CN(C)C)c(O)ccc3nc2-1` [TOPOTECAN], the T/C with Mus musculus [1] is given as 60%; with Mus musculus [2], 46%; with Mus musculus [3], 51%; with Mus musculus [4] it was 59%.
